According to patent US20260234112A1, “COMPOUNDS, COMPOSITIONS, AND METHODS OF USE THEREOF” (Type6 Therapeutics, Inc., priority 2023, published 2026):

molecular target: T1, Cdk2(2-298) (Homo sapiens, UniProt P24941); experiment: Surface Plasmon Resonance (SPR) compound interaction, Biacore 8K; assay type: binding; conditions: single-cycle kinetics (SCK, "S"), dissociation 1800 sec, read-out: Activity rating (KD)
T1 construct: Biotinylated N-terminal avi-tagged Cdk2(2-298) or Cdk1(1-297) was immobilized
How it was run: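 Biotinylated N-terminal avi-tagged Cdk2(2-298) captured on streptavidin chip at 2500–3000 RU in 25 mM HEPES, 150 mM NaCl, 0.05% Tween20, pH 7.5, 1% DMSO final. Eight 3-fold compound concentrations injected 120 sec at 30 μl/min, multi- or single-cycle kinetics; dissociation 180 sec (MCK) or 1800 sec (SCK).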

Kd [nM]	Compound
1000 to 5000	N[C@H]1CC[C@H](Nc2nccc(-c3cncnc3Oc3ccc(NS(=O)(=O)c4ccccc4)cc3F)n2)CC1 [Compound 130, N-[4-[5-[2-[(1r,4r)(4-aminocyclohexyl)amino]pyrimidin-4-yl]pyrimidin-4-yl]oxy-3-fluoro-phenyl] benzenesulfonamide]
11 to 100	N[C@H]1CC[C@H](Nc2nccc(-c3ccncc3Oc3ccc(NS(=O)(=O)c4ccccc4Cl)cc3F)n2)CC1 [Compound 131, N-[4-(1r,4r)[[4-[2-[(4-aminocyclohexyl)amino]pyrimidin-4-yl]-3-pyridyl]oxy]-3-fluorophenyl] 2-chlorobenzenesulfonamide]
100 to 1000	N[C@H]1CC[C@H](Nc2nccc(-c3ncccc3Oc3ccc(NS(=O)(=O)c4ccccc4Cl)cc3F)n2)CC1 [Compound 132, N-[4-[[2-[2-(1r,4r)[(4-Aminocyclohexyl)amino]pyrimidin-4-yl]-3-pyridyl]oxy]-3-fluoro-phenyl] 2-chlorobenzenesulfonamide]
